Data reported in patent publication US10125183B2, “Decoy peptides inhibiting binding of AMIGO2 and 3-phosphoinositide-dependent kinase 1” (Curacle Co., Ltd., priority 2015, dated 2018).
Each block holds one molecule with its values, some of them ahead of it. Where no end group is shown, it is not given here.

Assays:
HUVECs [1] = assay: HUVEC cell viability with or without VEGF; assay type: cell-based, human; details: in the presence or absence of VEGF
Description: Endothelial progenitor cells (EPC) were isolated from human umbilical cord blood as previously described (Maeng et al., 2009). Briefly, human umbilical cord blood samples (approximately 50 mL each) were collected from fresh placentas with attached umbilical cords by gravity flow. Human umbilical vein endothelial cells (HUVECs) were isolated from human umbilical cord veins using collagenase as described previously (Marin et al., 2001), and cells from passages three to six were used. HUVECs were cultured on 2% gelatin-coated dishes at 37° C. in a 5% CO2-humidified atmosphere using M199 medium (HyClone) containing 20% fetal bovine serum (FBS), 100 U/mL penicillin, 100 μg/mL streptomycin, 3 ng/mL bFGF (Upstate Biotechnology), and 5 U/mL heparin.
The PTD-A2 of FITC-linker-YGRKKRRQRRR-GKRVVFLEPLKDTA (SEQ ID NO: 37) (decoy peptide) and the control peptide (FITC-linker-YGRKKRRQRRR-GRVKTDFLAVPEKL (SEQ ID NO: 38)) (Con-pep) were obtained from Peptron. The experiment was performed using 5 μM concentration in vitro, 4 mg/kg was used for an animal experiment. Peptide treated HUVECs were incubated with serum-free M199 medium at 37° C.

HUVECs [2] = assay: EC adhesion assay; assay type: cell-based, human; details: siRNA-transfected HUVECs
Description: (§1) HUVECs were transfected with scrambled (control) and human AMIGO2 siRNAs using Lipofectamine® (Invitrogen) for 3 h, and cells were assayed 48 h after transfection. Human AMIGO2 siRNA was designed by Invitrogen using the following sequences: 5′-[…]-3′ (SEQ ID NO: 8) and 5′-[…]-3′ (SEQ ID NO: 9). HUVECs were transfected with EGFP-tagged plasmids using Lipofectamine® LTX and PLUS™ (Invitrogen) for 2 h, and cells were assayed 24 h after transfection.
HUVECs transfected with siRNA were trypsinized and washed twice in phenol-free M199. Prior to seeding, a 96-well plate was coated with 2% gelatin, fibronectin (3 μg/ml in PBS), and collagen type I (10 μg/ml in PBS), and incubated at 37° C. for 1 h in a humidified incubator. Prior to the initiation of the experiments, the wells were rinsed twice with PBS. HUVECs were labeled with calcein AM, and 1.5×10^4 cells were seeded into each well of the 96-well plates. Cells were incubated for 1 h at 37° C., and non-adherent, calcein-labeled cells were removed by four washes. M199 containing 20% FBS was added to the cells in each well, and the fluorescence was measured (maximum absorbance at 494 nm and maximum emission at 517 nm) using a fluorescein filter set by FLUOstar Omega (BGM LABTECH).

HUVECs [3] = assay: FAK immunostaining, F-actin staining and apoptosis markers in siRNA-transfected HUVECs; assay type: cell-based, human
Description: as §1
HUVECs were fixed in 3.7% formaldehyde for 10 min and permeabilized with 0.1% Triton X-100 on the ice. Cells were labeled with anti-FAK antibody (Santa Cruz Biotechnology), anti-PDK1 antibody (Cell Signaling Technology), anti-Akt antibody (Cell Signaling Technology), and anti-AMIGO2 antibody (Abcam) for 2 h at room temperature or overnight at 4° C. Afterwards, the cells were incubated with Alexa 488 and Alexa 546 secondary antibodies (Invitrogen) for 60 min at room temperature, and were then examined under a confocal microscope (LSM 700 META; Carl Zeiss).

Akt = assay: Endogenous Akt signaling in AMIGO2 siRNA-transfected HUVECs; assay type: cell-based, human
Description: as §1

AMIGO2 = assay: In vivo siRNA injection and analysis of hyaloid vessels and retinas; set-up: species or system mouse
Description: The sequence 5′-[…]-3′ (SEQ ID NO: 28) (mouse AMIGO2 siRNA, Dharmacon) was mixed with the TransIT®-QR Starter Kit (Mirus), and subcutaneously injected to each mouse (5 μg/P3.5 mouse) (Behlke, 2006; Bonifazi et al., 2010; Inaba et al., 2012; Mammoto et al., 2009). Hyaloid vessels and retinas were prepared as previously described (Lobov et al., 2005). After 2 days, the differences of protein change, retina, and hyaloid vessels were analyzed.

PH domain of PDK1 = target: T1, PH domain of PDK1 (Homo sapiens, UniProt O15530); assay: Pull-down assay and Far-western analysis of truncated AMIGO2 CD mutants; assay type: binding; details: purified GST-tagged proteins
T1 construct: the purified His-tagged PH domain proteins were incubated with Ni^2+-NTA resins; made in house; host or cells: Escherichia coli BL21
T1 sequence (O15530 409-556): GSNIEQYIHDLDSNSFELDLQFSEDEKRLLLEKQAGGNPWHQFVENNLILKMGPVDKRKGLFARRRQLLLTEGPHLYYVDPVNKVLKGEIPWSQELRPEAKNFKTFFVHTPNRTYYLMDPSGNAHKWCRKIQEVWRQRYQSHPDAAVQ
Description: GST-CD, 420-484, 420-474, 420-464 and 420-454 were prepared with vector plasmids of pGEX 4T1 and pET32a followed by the preparation of His-PH.BamH1 (5′-[…]-3′) (SEQ ID NO: 29) and Xho1 (5′-[…]-3′ (SEQ ID NO: 30), CD; 5′-[…]-3′ (SEQ ID NO: 31), 420-484; 5′-[…]-3′ (SEQ ID NO: 32), 420-474; 5′-[…]-3′ (SEQ ID NO: 33), 420-464; and 5′-[…]-3′ (SEQ ID NO: 34), 420-454) were used, and BamH1 (5′-[…]-3′ (SEQ ID NO: 35)) and Xho1 (5′-[…]-3′ (SEQ ID NO: 36)) were used for preparing His-PH. The proteins were expressed in Escherichia coli BL21, and purified with glutathione-Sepharose 4B resin and Ni2+-NTA-agarose.
GST and His-fused proteins (1.5 mg/ml:1.5 mg/ml) were incubated for 2 h at 4° C., immobilized on Ni^2+-NTA resin or glutathione-Sepharose 4B beads, and incubated for 30 min. Proteins were then eluted with elution buffer (25 mM NaPi, 300 mM NaCl, 5 mM β-mercaptoethanol, 500 mM imidazole, pH 7.5), western blot was performed with anti-GST and His antibodies.
Far-western analysis was performed as previously described (Wu et al., 2007). Briefly, purified GST-tagged proteins (1 μg) were loaded and separated, and then transferred to PVDF membranes. The membranes were denatured and renatured, incubated with purified His-tagged PH domain proteins (10 μg), and then detected with anti-His antibody.

[4] = subcutaneous injection, 5 μg/P3.5 mouse, after 2 days

direct interaction with purified His-PDK1 PH (PH domain of PDK1): directly interacted
B1: GST-tagged AMIGO2^CD: purified GST-tagged cytosolic domain of AMIGO2 (420-522aa) (protein)
chain: TPCPCKCKTKRQKNMLHQSNAHSSILSPGPASDASADERKAGAGKRVVFLEPLKDTAAGQNGKVRLFPSEAVIAEGILKSTRGKSDSDSVNSVFSDTPFVAST
modifications: left off: a dimerising Fc or GST

direct interaction with purified His-PDK1 PH (PH domain of PDK1): directly interacted
B2: 420-484: purified GST-tagged truncated mutant of the AMIGO2 cytosolic domain, residues 420-484 (protein)
chain: TPCPCKCKTKRQKNMLHQSNAHSSILSPGPASDASADERKAGAGKRVVFLEPLKDTAAGQNGKVR
modifications: also: GST-tagged

The remaining lines, values behind:

Molecule: 5′-UUAGGAUGCCCUCAGCUAUCACUGC-3′ (SEQ ID NO: 8) and 5′-AUUGUUGUAAAGCAGAAGCACUUCC-3′ (SEQ ID NO: 9) [AMIGO2 siRNA]
cell viability of siRNA-transfected HUVECs (HUVECs [1]): decreased | adhesion on ECM substrates (gelatin, fibronectin, collagen type I) (HUVECs [2]): reduced | active caspase-3 and FAK fragments (HUVECs [3]): detected | expression of FAK (immunostaining) (HUVECs [3]): low | F-actin depolymerization (HUVECs [3]; rhodamine-phalloidin staining): exhibited F-actin depolymerization | Akt phosphorylation (Thr308 and Ser473) (Akt): reduced

Molecule: 5′-UUGUACAAAAGAUCUCGCUGA-3′ (SEQ ID NO: 28) [AMIGO2-specific siRNA]
Akt phosphorylation in hyaloid vessels and retinas (AMIGO2; Amigo2-depleted mice): decreased | expression of AMIGO2 in vivo (AMIGO2; subcutaneous injection, 5 μg/P3.5 mouse): decreased | hyaloid vessel structure (AMIGO2; [4]): significant decreases | retinal vessel growth and vascular areas (AMIGO2; [4]): reduced

Molecule: 420-474: purified GST-tagged truncated mutant of the AMIGO2 cytosolic domain, residues 420-474 (TPCPCKCKTKRQKNMLHQSNAHSSILSPGPASDASADERKAGAGKRVVFLEPLKD; cysteine pairing not given here; also: GST-tagged)
direct interaction with purified His-PDK1 PH (PH domain of PDK1): directly interacted
